This note sets out measurements from patent publication US10435399B2, “HDAC6 inhibitory heterocyclic compound” (TAKEDA PHARMACEUTICAL COMPANY LIMITED, priority 2017, dated 2019).

The target in one assay is T1, HDAC6 enzyme (Homo sapiens, UniProt Q9UBN7).
T1 construct: transducing full length HDAC6 gene into Sf-9 insect cells; GST; purchased SignalChem; host or cells: Sf-9 insect cells
T1 sequence (Q9UBN7 1-1215): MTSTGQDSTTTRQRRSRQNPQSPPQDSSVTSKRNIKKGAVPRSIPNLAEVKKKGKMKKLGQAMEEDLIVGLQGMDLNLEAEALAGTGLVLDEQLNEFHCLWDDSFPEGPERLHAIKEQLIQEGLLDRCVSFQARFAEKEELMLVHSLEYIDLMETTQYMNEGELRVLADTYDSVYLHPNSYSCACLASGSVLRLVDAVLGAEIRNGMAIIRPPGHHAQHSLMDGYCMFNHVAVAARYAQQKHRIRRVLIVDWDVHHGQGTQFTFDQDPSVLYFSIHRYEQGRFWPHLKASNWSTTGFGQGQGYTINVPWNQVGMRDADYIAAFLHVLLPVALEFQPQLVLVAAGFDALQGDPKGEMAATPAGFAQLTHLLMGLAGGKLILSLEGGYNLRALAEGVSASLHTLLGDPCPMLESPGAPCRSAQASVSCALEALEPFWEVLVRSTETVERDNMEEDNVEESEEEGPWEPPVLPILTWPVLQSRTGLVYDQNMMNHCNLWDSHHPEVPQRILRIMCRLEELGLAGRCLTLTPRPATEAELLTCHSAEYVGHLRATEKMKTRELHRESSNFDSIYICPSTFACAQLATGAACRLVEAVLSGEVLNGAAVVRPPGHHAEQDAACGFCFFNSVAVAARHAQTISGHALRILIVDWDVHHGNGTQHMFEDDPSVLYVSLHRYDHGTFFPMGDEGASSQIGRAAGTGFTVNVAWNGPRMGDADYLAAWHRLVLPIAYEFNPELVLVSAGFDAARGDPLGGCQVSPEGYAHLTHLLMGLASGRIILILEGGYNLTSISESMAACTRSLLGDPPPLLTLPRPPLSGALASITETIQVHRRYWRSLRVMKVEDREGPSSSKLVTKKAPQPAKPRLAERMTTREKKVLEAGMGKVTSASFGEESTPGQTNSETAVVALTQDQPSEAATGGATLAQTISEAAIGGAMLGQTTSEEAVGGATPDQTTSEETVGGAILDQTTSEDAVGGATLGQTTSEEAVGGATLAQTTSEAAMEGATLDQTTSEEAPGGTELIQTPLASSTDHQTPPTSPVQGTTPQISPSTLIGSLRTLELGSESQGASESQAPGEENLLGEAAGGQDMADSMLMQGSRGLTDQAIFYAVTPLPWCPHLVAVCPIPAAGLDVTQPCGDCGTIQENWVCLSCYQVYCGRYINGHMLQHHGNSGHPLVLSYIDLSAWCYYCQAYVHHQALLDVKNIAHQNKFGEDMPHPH
Kind of assay: HDAC6 enzyme inhibitory activity (HDAC-Glo I/II Assay kit). Particulars: 10 μM; wells without enzyme = 100% inhibition; read-out: HDAC6 inhibitory rate (%) (10 μM). Type of assay: biochemical. The method, boiled down: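 Test compound is preincubated 60 min at RT with full-length insect-cell HDAC6 in Tris-HCl pH 7.5 with 135 mM NaCl and 1 mM MgCl2. A 20 min room-temperature HDAC-Glo reaction follows, with luminescent read-out.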
For the molecule `N[C@H]1COCC[C@H]1N1Cc2ccc(-c3nnc(C(F)F)o3)cc2C1=O` [Example 414, 2-((3R,4R)-3-aminotetra-hydro-2H-pyran-4-yl)-6-(5-(difluoro-methyl)-1,3,4-oxadiazol-2-yl) isoindolin-1-one], the inhibition at 10 µM was 87%.

For `O=C1c2cc(-c3nnc(C(F)F)o3)ccc2CN1[C@@H]1CCOC[C@@H]1NCC(F)(F)F` [Example 415, 6-(5-(difluoro-methyl)-1,3,4-oxadiazol-2-yl)-2-((3R,4R)-3-((2,2,2-trifluoro-ethyl)amino)tetrahydro-2H-pyran-4-yl) isoindolin-1-one], the inhibition at 10 µM came out at 101%. In the case of `O=C1c2cc(-c3nnc(C(F)F)o3)ccc2CN1[C@@H]1CCOC[C@@H]1NCC(F)(F)C(F)(F)F` [Example 416, 6-(5-(difluoro-methyl)-1,3,4-oxadiazol-2-yl)-2-((3R,4R)-3-((2,2,3,3,3-pentafluoro-propyl)amino)tetrahydro-2H-pyran-4-yl) isoindolin-1-one], the inhibition at 10 µM was 101%. The same measure, in the same setting: the same measure for `O=C1c2cc(-c3nnc(C(F)F)o3)ccc2CN1[C@@H]1CCOC[C@@H]1NC(=O)C(F)(F)C(F)(F)F` [Example 418, N-((3R,4R)-4-(6-(5-(difluoro-methyl)-1,3,4-oxadiazol-2-yl)-1-oxo-1,3-dihydro-2H-isoindol-2-yl)tetrahydro-2H-pyran-3-yl)-2,2,3,3,3-pentafluoro-propanamide]: 99%; for `Cn1ccc(CN2Cc3ncc(-c4nnc(C(F)F)o4)cc3C2=O)n1` [Example 419, 3-(5-(difluoro-methyl)-1,3,4-oxadiazol-2-yl)-6-((1-methyl-1H-pyrazol-3-yl)methyl)-6,7-dihydro-5H-pyrrolo[3,4-b] pyridin-5-one]: 99%. Turning to `O=C1c2cc(-c3nnc(C(F)F)o3)cc(F)c2CN1C[C@H]1CC(F)(F)CN1S(=O)(=O)c1cccc(F)c1` [Example 420, 2-(((2R)-4,4-difluoro-1-((3-fluoro-phenyl)sulfonyl)pyrrolidin-2-yl)methyl)-6-(5-(difluoro-methyl)-1,3,4-oxadiazol-2-yl)-4-fluoroiso-indolin-1-one], the inhibition at 10 µM is 99%. `O=C1c2cc(-c3nnc(C(F)F)o3)cc(F)c2CN1C[C@H]1CC(F)(F)CN1S(=O)(=O)CC(F)(F)F` [Example 421, 6-(5-(difluoro-methyl)-1,3,4-oxadiazol-2-yl)-2-(((2R)-4,4-difluoro-1-((2,2,2-trifluoro-ethyl)sulfonyl)pyrrolidin-2-yl)methyl)-4-fluoroiso-indolin-1-one]: the inhibition at 10 µM amounted to 98%. On the same count and under the same terms, the same measure for `O=C1c2cc(-c3nnc(C(F)F)o3)cc(F)c2CN1C[C@H]1CC(F)(F)CN1C(=O)C1CC1` [Example 422, 2-(((2R)-1-(cyclopropyl-carbonyl)-4,4-difluoro-pyrrolidin-2-yl)methyl)-6-(5-(difluoro-methyl)-1,3,4-oxadiazol-2-yl)-4-fluoroiso-indolin-1-one]: 98%; for `Cn1cc(CN2Cc3ncc(-c4nnc(C(F)F)o4)cc3C2=O)cn1` [Example 423, 3-(5-(difluoro-methyl)-1,3,4-oxadiazol-2-yl)-6-((1-methyl-1H-pyrazol-4-yl)methyl)-6,7-dihydro-5H-pyrrolo[3,4-b] pyridin-5-one]: 99%. On the same count and under the same terms, the same measure for `O=C1c2cc(-c3nnc(C(F)F)o3)cnc2CN1c1ccccc1-c1cnn(C(F)F)c1` [Example 424, 3-(5-(difluoro-methyl)-1,3,4-oxadiazol-2-yl)-6-(2-(1-(difluoro-methyl)-1H-pyrazol-4-yl)phenyl)-6,7-dihydro-5H-pyrrolo[3,4-b] pyridin-5-one]: 101%; for `O=C1c2cc(-c3nnc(C(F)F)o3)cnc2CN1Cc1cncc(C(F)(F)F)c1` [Example 425, 3-(5-(difluoro-methyl)-1,3,4-oxadiazol-2-yl)-6-((5-(trifluoro-methyl)pyridin-3-yl)methyl)-6,7-dihydro-5H-pyrrolo [3,4-b] pyridin-5-one]: 99%; for `Cn1nc(C(F)(F)F)cc1-c1c(Cl)cccc1N1Cc2ccc(-c3nnc(C(F)F)o3)cc2C1=O` [Example 426, 2-(3-chloro-2-(1-methyl-3-(trifluoro-methyl)-1H-pyrazol-5-yl)phenyl)-6-(5-(difluoro-methyl)-1,3,4-oxadiazol-2-yl) isoindolin-1-one]: 99%. Still for that read-out and setting: then `O=C1c2cc(-c3nnc(C(F)F)o3)cc(F)c2CN1C[C@H]1CCCN1S(=O)(=O)c1cccc(F)c1` [Example 427, 6-(5-(difluoro-methyl)-1,3,4-oxadiazol-2-yl)-4-fluoro-2-(((2R)-1-((3-fluorophenyl)sulfonyl)pyrrolidin-2-yl)methyl) isoindolin-1-one], with 100%; and `O=C1c2cc(-c3nnc(C(F)F)o3)cnc2CN1Cc1cccc(Br)c1` [Example 428, 6-(3-bromo-benzyl)-3-(5-(difluoro-methyl)-1,3,4-oxadiazol-2-yl)-6,7-dihydro-5H-pyrrolo [3,4-b] pyridin-5-one], with 99%; and `O=C1c2cc(-c3nnc(C(F)F)o3)cc(F)c2CN1C[C@H]1CC(F)(F)CN1C(=O)c1ccccc1` [Example 429, 2-(((2R)-1-benzoyl-4,4-difluoro-pyrrolidin-2-yl)methyl)-6-(5-(difluoro-methyl)-1,3,4-oxadiazol-2-yl)-4-fluoroiso-indolin-1-one], with 97%. Consider `O=C1c2cc(-c3nnc(C(F)F)o3)cc(F)c2CN1C[C@H]1CC(F)(F)CN1S(=O)(=O)c1ccccc1` [Example 430, 6-(5-(difluoro-methyl)-1,3,4-oxadiazol-2-yl)-2-(((2R)-4,4-difluoro-1-(phenylsulfonyl)pyrrolidin-2-yl)methyl)-4-fluoroiso-indolin-1-one], for which the inhibition at 10 µM is 101%. The same measure, in the same setting: the same measure for `Cn1nc(C(F)(F)F)cc1-c1c(F)cccc1N1Cc2ccc(-c3nnc(C(F)F)o3)cc2C1=O` [Example 431, 6-(5-(difluoro-methyl)-1,3,4-oxadiazol-2-yl)-2-(3-fluoro-2-(1-methyl-3-(trifluoro-methyl)-1H-pyrazol-5-yl)phenyl)iso-indolin-1-one]: 100%; for `O=C1c2cc(-c3nnc(C(F)F)o3)cnc2CN1Cc1cccc(OC(F)(F)F)c1` [Example 432, 3-(5-(difluoro-methyl)-1,3,4-oxadiazol-2-yl)-6-(3-(trifluoro-methoxy)benzyl)-6,7-dihydro-5H-pyrrolo[3,4-b] pyridin-5-one]: 94%. Same read-out and setting: the same measure for `O=C1c2cc(-c3nnc(C(F)F)o3)ccc2CN1C1(Cc2ccccc2)CCOCC1` [Example 433, 2-(4-benzyl-tetrahydro-2H-pyran-4-yl)-6-(5-(difluoro-methyl)-1,3,4-oxadiazol-2-yl) isoindolin-1-one]: 101%. In the case of `Cn1cc(-c2cn(C)nc2N2Cc3ccc(-c4nnc(C(F)F)o4)cc3C2=O)cn1` [Example 434, 6-(5-(difluoro-methyl)-1,3,4-oxadiazol-2-yl)-2-(1,1′-dimethyl-1H,1′H-4,4′-bipyrazol-3-yl) isoindolin-1-one], the inhibition at 10 µM was 98%.

As to `O=C1c2cc(-c3nnc(C(F)F)o3)ccc2CN1c1ccnn1-c1ccccc1` [Example 435, 6-(5-(difluoro-methyl)-1,3,4-oxadiazol-2-yl)-2-(1-phenyl-1H-pyrazol-5-yl)isoindolin-1-one], the inhibition at 10 µM amounted to 99%. Turning to `Cn1cc(-c2c(F)cccc2N2Cc3ccc(-c4nnc(C(F)F)o4)cc3C2=O)cn1` [Example 436, 6-(5-(difluoro-methyl)-1,3,4-oxadiazol-2-yl)-2-(3-fluoro-2-(1-methyl-1H-pyrazol-4-yl)phenyl)iso-indolin-1-one], the inhibition at 10 µM amounted to 98%.

The same assay, now with this note: read-out: HDAC6 inhibitory rate (%) (10 μM).
Take `O=C1c2cc(-c3nnc(C(F)F)o3)ccc2CN1[C@@H]1CCOC[C@@H]1NCC(F)(F)C(F)(F)C(F)(F)F` [Example 417, 6-(5-(difluoro-methyl)-1,3,4-oxadiazol-2-yl)-2-((3R,4R)-3-((2,2,3,3,4,4,4-heptafluoro-butyl)amino)tetrahydro-2H-pyran-4-yl) isoindolin-1-one]: the inhibition at 10 µM stood at 101%.
